Consider 14 compounds from ChEMBL document CHEMBL5370636, “Asteriquinones from Aspergillus sp. GZWMJZ-258 and Their Derivatives” (J Nat Prod, 2023).

Each structure is given as a SMILES string. Where only a bound is given, the exact number is not on record here.

Data set [1] can be described thus: Selectivity index, ratio of IC50 for human L02 cells to IC50 for human MV4-11 cells. The settings on record: L02 cells and MV4-11 cells.
Data set [2] is described as follows: Cytotoxicity against human L02 cells assessed as cell growth inhibition incubated for 72 hrs by Cell Titer-Glo assay. On the technique in general: In ATP-based viability assays light output follows the ATP content of the culture.
Data set [3] deals with MV4-11. Kind of data set: Cytotoxicity against human MV4-11 cells assessed as cell growth inhibition incubated for 72 hrs by Cell Titer-Glo assay. The format is functional, cell-based. Conditions: MV4-11, 72 h.
In data set [4] the test system is MV4-11. Briefly: Induction of cell cycle arrest in human MV4-11 cells assessed as accumulation of cells at G2/M phase at 0.1 uM incubated for 24 hrs by PI staining based flow cytometry (reference value: 18.56 %). It counts as functional. On the technique in general: A flow cytometer gives signals particle by particle.
Data set [5] has as its system MV4-11. Briefly: Downregulation of FLT-3 protein expression in human MV4-11 cells incubated for 24 hrs by Western blot analysis. Conditions: dose 100-400 nM. The format is functional, cell-based. For orientation: Immunoblotting shows a protein as a band on a membrane.
Data set [6] concerns MV4-11. Briefly: Induction of apoptosis in human MV4-11 cells assessed as early apoptotic cells at 0.1 uM incubated for 24 hrs by Annexin V-FITC/PI staining based flow cytometry (reference value: 0.015 to 0.39 %). It counts as functional.
The test system of data set [7] is MV4-11. Briefly: Induction of apoptosis in human MV4-11 cells assessed as late apoptotic cells at 0.1 uM incubated for 24 hrs by Annexin V-FITC/PI staining based flow cytometry (reference value: 0.53 to 1.03 %). It counts as functional.
Data set [8] relates to MV4-11. Briefly: Induction of apoptosis in human MV4-11 cells assessed as viable cells at 0.1 uM incubated for 24 hrs by Annexin V-FITC/PI staining based flow cytometry (reference value: 98.58 to 99.04%). The format is functional. The settings on record: read-out: Activity.
In data set [9] the test system is MV4-11. Briefly: Induction of cell cycle arrest in human MV4-11 cells assessed as accumulation of cells at S phase at 0.1 uM incubated for 24 hrs by PI staining based flow cytometry (reference value: 27.58 %). It counts as functional.
The subject of data set [10] is MV4-11. Briefly: Induction of apoptosis in human MV4-11 cells assessed as necrotic cells at 0.1 uM incubated for 24 hrs by Annexin V-FITC/PI staining based flow cytometry (reference value: 0.05 to 0.24 %). The format is functional.
Data set [11] has as its system MV4-11. Kind of data set: Induction of cell cycle arrest in human MV4-11 cells assessed as accumulation of cells at G0/G1 phase at 0.1 uM incubated for 24 hrs by PI staining based flow cytometry (reference value: 57.44 %). The format is functional.

As a reminder, the IC50 is the point on the concentration scale where inhibition reaches its midpoint. Turning to `COc1c(OC)c(-c2c[nH]c3ccc(O)cc23)c(OC)c(OC)c1-c1c[nH]c2ccccc12`, in data set [1], the selectivity ratio was greater than 8. For the same compound, in [2], the IC50 at 72 h was greater than 100 µM. For the same compound, the IC50 in data set [3] worked out at 12 µM.
The matching figures for `CCOc1ccc2[nH]cc(-c3c(OC)c(OC)c(-c4c[nH]c5ccccc45)c(OC)c3OC)c2c1`: greater than 500, greater than 100 µM and 0.2 µM.
The corresponding values for `COc1ccc2[nH]cc(-c3c(OC)c(OC)c(-c4c[nH]c5ccccc45)c(OC)c3OC)c2c1` are greater than 15, greater than 100 µM and 6.5 µM.
Take `COc1c(OC)c(-c2c[nH]c3ccc(OCC(=O)c4ccccc4)cc23)c(OC)c(OC)c1-c1c[nH]c2ccccc12`: the selectivity ratio in [1] is greater than 74. Moreover, the IC50 at 72 h in data set [2] was greater than 100 µM. Further, the IC50 in data set [3] is 1.3 µM.
The matching figures for `COc1c(O)c(-c2c[nH]c3ccccc23)c2c(c1-c1c[nH]c3ccccc13)OC(C)(C)C=C2`: 9, 11 µM and 1.2 µM.
`COc1c(OC)c(-c2c[nH]c3ccc(OC4CCCC4)cc23)c(OC)c(OC)c1-c1c[nH]c2ccccc12`: the Activity was 15.55% in data set [4]; “Dose-Dependent Effect” in data set [5]; 19.09% in data set [6]; 4.36% in [7]; 36.06% in data set [9]; 0% in [10]. Moreover, the Activity in data set [11] amounted to 49.99%. Moreover, the viability at 0.1 µM in data set [8] turned out to be 74.7%. Further, the selectivity ratio in data set [1] was greater than 710. Besides, the IC50 at 72 h in data set [2] is greater than 100 µM. Besides, in [3], the IC50 was 0.14 µM.
`COc1c(OC)c(-c2cn(C3CCCC3)c3ccccc23)c(OC)c(OC)c1-c1c[nH]c2ccccc12`: the selectivity ratio in data set [1] was greater than 120. The IC50 at 72 h in data set [2] is greater than 100 µM. In addition, in data set [3], the IC50 was 0.84 µM.
On to `COc1c(OC)c(-c2cn(CCN3CCOCC3)c3ccccc23)c(OC)c(OC)c1-c1c[nH]c2ccccc12`, for which, in [1], the selectivity ratio is greater than 210. Further, the IC50 at 72 h in data set [2] was greater than 100 µM. Besides, the IC50 in data set [3] came to 0.48 µM.
Take `COc1ccc2[nH]cc(-c3c(OC)c(OC)c(-c4c[nH]c5ccc(O)cc45)c(OC)c3OC)c2c1`: the selectivity ratio in data set [1] was greater than 75. Moreover, the IC50 at 72 h in data set [2] was greater than 100 µM. Also, the IC50 in data set [3] was 1.3 µM.
The corresponding values for `COc1c(O)c(-c2c[nH]c3ccccc23)c(CC=C(C)C)c(OC)c1-c1c[nH]c2ccccc12` are 9, 17 µM and 1.8 µM.
The corresponding values for `COc1c(OC)c(-c2c[nH]c3ccc(OCC(=O)c4ccc(Cl)c(Cl)c4)cc23)c(OC)c(OC)c1-c1c[nH]c2ccccc12` are greater than 100, greater than 100 µM and 0.99 µM.
As for `COc1c(OC)c(-c2c[nH]c3ccccc23)c(OC)c(OC)c1-c1c[nH]c2ccccc12`, in [1], the selectivity ratio is greater than 17. Besides, the IC50 at 72 h in data set [2] is greater than 100 µM. In addition, the IC50 in data set [3] is 5.9 µM.
For `COc1c(OC)c(-c2c[nH]c3ccc(OCCO[C@@H]4O[C@H](CO)[C@@H](O)[C@H](O)[C@H]4O)cc23)c(OC)c(OC)c1-c1c[nH]c2ccccc12`, the Activity in data set [4] was 17.42%; in [5] it was “Dose-Dependent Effect”; in data set [6], 15.78%; in [7], 3.67%; in [9] it was 30.68%; in data set [10], 0%. For the same compound, the Activity in [11] amounted to 52.91%. For the same compound, in [8], the viability at 0.1 µM stood at 78%. For the same compound, the selectivity ratio in data set [1] was greater than 380. The IC50 at 72 h in [2] was greater than 100 µM. Moreover, the IC50 in data set [3] is 0.26 µM.
Regarding `COc1c(OC)c(-c2c[nH]c3ccc(OCCN4CCOCC4)cc23)c(OC)c(OC)c1-c1c[nH]c2ccccc12`, in [1], the selectivity ratio is greater than 220. Besides, the IC50 at 72 h in [2] is greater than 100 µM. For the same compound, the IC50 in [3] amounted to 0.45 µM.
